Laboratory results: EP3958980B1, “TARGETED NOVEL TRIAZOLOTHIADIAZINE DERIVATIVES FOR THE TREATMENT OF LUNG CANCER” (Anadolu Universitesi, priority 2020, dated 2021)
≈ marks a conversion by molar mass, not a printed value. Where “and” joins values, the source holds several entries; their conditions need not be identical. Equal values may be shown once.

Key:
[1] = system: A549 human lung adenocarcinoma cells; test: MTT assay, in vitro cytotoxic activity on A549; assay type: cell-based; conditions: for IC50: Homo sapiens, A549, 24 hour incubation, read-out: IC50 values (µg/mL) A549 cell line
Procedure: (§1) The in vitro cytotoxic effects of the compounds were determined with the MTT assay. For this purpose, MTT test was performed using A549 and CCD-19Lu cell lines. After the cell lines used in the invention were centrifuged following taking them out from liquid nitrogen (-196 °C), the cells were cultured in a CO2 incubator comprising 5% CO2 at 37 °C in flasks containing 10% fetal bovine serum (FBS), where CCD-19Lu cells were cultured with Dulbecco's Modified Eagle's Medium (DMEM) and A549 cells were cultured with Roswell Park Memorial Institute (RPMI). The cells that reach the sufficient number for the assay, were seeded to 96 well plates such that 2×10^3 cells were placed in each well and at the same time, components at concentrations of 1-500 µg/mL were added to cells and they were incubated at 37 °C. At the end of the 24 hour incubation period, the MTT powder (5 mg/mL in 1 × phosphate buffered saline (PBS)) was added to each well (20 µL). After a 2-4 h period under the same conditions, the medium was removed from the plate and 100 µL of DMSO was added to each well to dissolve the dye and kept for 10 minutes. Then the plates were read at a wavelength of 540 nm using ELx808-IU Bio-Tek plate reader. The control cell viability which was not treated with the components was accepted to be 100% and the viability rates of the cells were expressed as %. […] According to the results obtained, the dose range was extended until the IC50 value was determined. MTT assay is a frequently used method which measures the cytotoxic effects of the compounds on the cells by converting the yellow colored MTT stain into purple colored formazan crystals via the mitochondrial succinate dehydrogenase activity. In the cytotoxic activity tests of the compounds, A549 lung adenocarcinoma and CCDLu19 normal lung fibroblast cell lines were used.

[2] = system: A549 cells; test: Annexin V FITC / PI flow cytometry (apoptosis); assay type: cell-based, human; conditions: IC50 concentrations; for Early apoptotic cells% / Late apoptotic cells% / Necrosis% / Viable cells%: 24 hours; for early and late apoptotic effects: sum of early and late apoptotic cells
Procedure: Briefly, after the cells were centrifuged for 4 minutes at 800 rpm, they were washed twice with 1 × PBS and were suspended in the 1 × Annexin-V binding solution at a concentration of 2-3 × 10^6 cell/mL and then 100 µL of the cell solution was transferred into tubes. Then, 5 µL of Annexin-V Fluorescein isothiocyanate (FITC) and 10 µL of propidium iodide (PI) solution were added to each tube, after incubation for 15 minutes at room temperature, 400 µL × Annexin-V binding solution was added to each tube and the cells were analyzed by flow cytometry (BD FACSCalibur™) within 1 hour. The early and late apoptotic cell percentages were calculated according to positive control.

[3] = system: caspase-3; test: Caspase-3 activity by flow cytometry; assay type: cell-based, human; conditions: A549 cells, 24 hours, IC50 concentrations
Procedure: After the active compounds were determined with the MTT assay, their caspase-3 activities on A549 cells depending on IC50 concentrations were determined in flow cytometry with BD, Pharmingen flow cytometry kit according to the manufacturer's recommendations. Briefly, the cells were incubated at the determined doses and times with the compounds. The cells were washed twice with cold 1 X PBS. These cells were suspended with BD Cytofix/Cytoperm solution (1×10^6 cell / 0.5 mL). Then they were left to wait on ice for 20 minutes. After centrifugation, the cells were removed with the BD Cytofix/Cytoperm solution. The cells were washed twice with BD Perm/Wash™ buffer (1×10^6 cell/0.5 mL). Afterwards the cells were re-suspended with BD Perm/Wash™ buffer and antibodies and they were kept at room temperature for 30 minutes. For each test, the cells were washed in 1 mL BD Perm/Wash^TM buffer and were suspended in 0.5 mL BD Perm/Wash^TM buffer and they were analyzed with flow cytometry.

[4] = system: ROCK; test: ROCK activity assay on lysates of treated A549 cells; assay type: cell-based, human; conditions: for ROCK Inhibition% / ROCK inhibition (in words): 24 hours; for ROCK Inhibition%: IC50 concentration (9: 5.75; 11: 0.73; 12: 0.80; 14: 2.63; Cisplatin: 23.00 µg/mL); for ROCK inhibition (in words): IC50 and IC50/2 concentrations
Procedure: The intracellular COX, Akt and ROCK inhibitory effects of the active compounds determined with the MTT assay, were measured with the colorimetric assay according to the manufacturer's recommendations.
Two wells were used for each sample. 90 µL active ROCK-II positive control and samples were added to the wells of the substrate plate. 10 X kinase solution comprising DTT and ATP was added to 10 µL wells and the kinase reaction was started and the plate was incubated at 30 °C for 30-60 minutes. 50 µL 0.5 M EDTA was added to each well at pH=8.0 and the reaction was stopped. The wells were emptied and they were washed 3 times with 250 µL 1X washing solution. After the final washing, 100 µL anti-phospho-MYPT1 (Thr696) antibody was added. The plate was closed and it was incubated at room temperature for 1 hour on an orbital shaker. After the wells were washed three times again, 100 µL HRP-conjugated secondary antibody was added and it was incubated again at room temperature for 1 hour on an orbital shaker. After the wells were emptied, they were washed 3 times. Then 100 µL of substrate solution was added. It was incubated at room temperature for 5-20 minutes on an orbital shaker. 100 µL of stop solution was added. The absorbance of each well was read at a wavelength of 450 nm in a spectrophotometric microplate reader.

[5] = system: CCD-19Lu normal lung fibroblast cells; test: MTT assay, in vitro cytotoxic activity on CCD-19Lu; assay type: cell-based; conditions: for IC50: Homo sapiens, CCD 19Lu, 24 hour incubation, read-out: IC50 values (µg/mL) CCDLul9 cell line
Procedure: as §1, with “determined.” for “determined. MTT assay is a frequently used method which measures the cytotoxic effects of the compounds on the cells by converting the yellow colored MTT stain into purple colored formazan crystals via the mitochondrial succinate dehydrogenase activity. In the cytotoxic activity tests of the compounds, A549 lung adenocarcinoma and CCDLu19 normal lung fibroblast cell lines were used.”
MTT assay is a frequently used method which measures the cytotoxic effects of the compounds on the cells by converting the yellow colored MTT stain into purple colored formazan crystals via the mitochondrial succinate dehydrogenase activity. In the cytotoxic activity tests of the compounds, A549 lung adenocarcinoma and CCDLu19 normal lung fibroblast cell lines were used.

Row | SMILES | IC50 values (µg/mL) A549 cell line ([1]; 24 hour incubation) [µg/mL] | Early apoptotic cells% [2] [%] | Late apoptotic cells% [2] [%] | Necrosis% [2] [%] | early and late apoptotic effects [2] | Caspase-3 negative (-) cells% [3] [%] | Caspase-3 positive (+) cells% [3] [%] | ROCK Inhibition% [4] | ROCK Inhibition% ([4]; listed as cisplatin) [%] | IC50 [1] [µg/mL] | cytotoxicity against CCDLu19 cells (in words) [5] | IC50 [5] [µg/mL] | Viable cells% [2] [%] | ROCK inhibition (in words) [4] | IC50 (ROCK inhibition) ([4]; 24 hours incubation) [µg/mL]
1 | N.N.[Cl][Pt][Cl] [Cisplatin, reference compound] | 23.00 ± 1.41 | 14.70 | 30.10 | 28.70 | 44.80% | 89.70 | 10.30 | 29.84±0.16% | 29.84 |  |  |  |  |  | 
2 | CS(=O)(=O)c1ccc(C2=Nn3c(CCc4ccc5c(c4)OCO5)nnc3SC2)cc1 [Compound 9] |  | 5.00 | 16.20 | 6.30 | 21.20% | 96.70 | 3.40 | 6.89±0.44% |  | 5.75 ± 2.47 (≈ 13 µM) | non-cytotoxic | 102 ± 10.4 (≈ 230 µM) | 72.50 | did not exhibit significant ROCK inhibition | 
3 | FC(F)(F)c1ccc(C2=Nn3c(CCc4ccc5c(c4)OCO5)nnc3SC2)cc1 [Compound 11, 3-[2-(1,3-Benzodioxole-5-yl)ethyl]-6-(4-trifluoromethylphenyl)-7H-[1,2,4]triazolo [3,4-b][1,3,4]thiadiazine] |  | 2.90 | 9.90 | 14.80 | 12.80% | 97.00 | 3.10 |  |  | 0.73 ± 0.16 (≈ 1.69 µM) | non-cytotoxic | 113 ± 5.77 (≈ 262 µM) | 72.30 | did not exhibit significant ROCK inhibition | 
4 | Fc1cccc(C2=Nn3c(CCc4ccc5c(c4)OCO5)nnc3SC2)c1 [Compound 12, 3-[2-(1,3-Benzodioxole-5-yl)ethyl]-6-(3-fluorophenyl)-7H-[1,2,4]triazolo [3,4-b] [1,3,4]thiadiazine] |  | 4.80 | 29.70 | 40.80 | 34.50% and 25.90% | 97.80 | 2.40 |  |  | 0.8 ± 0.05 (≈ 2.09 µM) | non-cytotoxic | 34.3 ± 2.08 (≈ 89.8 µM) | 24.70 | did not exhibit significant ROCK inhibition | 
5 | c1ccc(-c2ccc(C3=Nn4c(CCc5ccc6c(c5)OCO6)nnc4SC3)cc2)cc1 [Compound 14, 3-[2-(1,3-Benzodioxole-5-yl)ethyl]-6-(biphenyl-4-yl)-7H-[1,2,4]triazolo[3,4-b] [1,3,4]thiadiazine] |  | 4.20 | 21.70 | 34.60 | 25.90% and 34.50% | 96.60 | 3.70 | 53.85% and 53.85±8.85% |  | 2.63 ± 0.72 (≈ 5.97 µM) | non-cytotoxic | 65 ± 5 (≈ 148 µM) | 39.50 |  | 2.55 ± 0.21 (≈ 5.79 µM)
